Experimental findings from paper PMC12152883, “Bile acids inhibit equilibrative adenosine transport to alter adenosine receptor signaling in cholestasis” (The Journal of Biological Chemistry, 2025) are described below.

Structures are written as SMILES.

One experiment concerns IP3. As to the kind of experiment: IP3 levels in CA-treated HeLa cells. The format is cell-based. As to conditions: 100 μM CA, 14 h; control 0.011 ± 0.0004. The method, then:
(§1) High concentrations of BAs that inhibit ENT-mediated Ado transport could lead to an increase in extracellular Ado levels and therefore impact cell surface AdoR signaling.
(§2) PKC activity was measured using PKC kinase activity kit (ADI-EKS-420A) purchased from Enzo Biochem. IP3 levels were quantified using an IP3 (Inositol Triphosphate) ELISA Kit (EKF58173) supplied by Biomatik Corporation.

Experiment [1] in a line: Cholestatic mouse model: liver CA, 13C-Ado and total Ado by LC/MS-MS. Format: in vivo. The conditions noted are these: includes endogenous Ado.
Method: We also examined the total Ado content (includes endogenous Ado) in the harvested mouse livers using LC‒MS‒MS.
Adenosine and ^13C-Ado concentrations were determined in liver tissue samples using a targeted LC‒MS/MS method. The liver samples (∼50 mg) were homogenized with 80% methanol and spiked with 1 μg/ml reserpine as an internal standard. The samples were thoroughly vortexed for 30 s and then centrifuged at 20,000g for 10 min. The supernatant was collected in labeled Eppendorf tubes, and 15 μl of each sample was injected into the LC‒MS/MS system. […] The operational mass spectrometric parameters included a capillary voltage of 4.5 kV; sheath gas of 35 arbitrary units; auxiliary gas of 10 arbitrary units; sweep gas of two arbitrary units; ion transfer tube temperature of 350 °C; vaporizer temperature of 450 °C; dwell time of 50 ms per transition, and collision-induced dissociation gas of 1.5 mTorr. The collision energy was set at 20 V for both Ado and ^13C-Ado, whereas it was set to 38 V for reserpine. Chromatographic separation was performed on a Scherzo SMC18 column (150 × 4.6 mm; 3 μm particle size) from Imtakt. […]
Two hours after the injection, mouse livers were harvested, and the amount of ^13C-Ado uptake in the liver was quantified via LC–MS-MS. […]
The target of another experiment is T1, ENT2 (Homo sapiens, UniProt Q14542).
T1 sequence (Q14542 1-456): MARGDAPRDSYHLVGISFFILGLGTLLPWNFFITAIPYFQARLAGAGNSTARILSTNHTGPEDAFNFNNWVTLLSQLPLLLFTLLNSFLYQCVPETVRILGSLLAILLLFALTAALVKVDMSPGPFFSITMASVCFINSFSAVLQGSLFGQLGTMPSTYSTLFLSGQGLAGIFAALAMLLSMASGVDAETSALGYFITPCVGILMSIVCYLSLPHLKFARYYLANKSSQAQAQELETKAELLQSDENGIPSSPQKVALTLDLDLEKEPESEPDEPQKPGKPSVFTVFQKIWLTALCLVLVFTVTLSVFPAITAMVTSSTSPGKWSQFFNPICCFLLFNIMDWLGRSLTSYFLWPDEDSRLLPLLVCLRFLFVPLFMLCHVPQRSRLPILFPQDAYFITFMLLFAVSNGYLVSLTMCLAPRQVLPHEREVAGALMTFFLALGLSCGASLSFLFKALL
The experiment is described as follows: BA transport by ENT2-injected oocytes quantified by LC-MS/MS. As to conditions: pH 7.4, p < 0.001 compared with water-injected oocytes. On the set-up: expressed in transfected cells; host or cells: Xenopus laevis oocytes injected with in vitro-transcribed capped mRNA from pOX-hENT2. Format: cell-based. The method, then: Therefore, we studied several different BAs and used a liquid chromatography–tandem mass spectrometry (LC‒MS/MS) method to quantify the transport activity of H2O-injected and ENT2 mRNA-injected oocytes using TCA as a positive control. […] We subsequently tested the ability of ENT2 to transport BAs at different physiological pH values ranging from pH 5.5 to pH 7.4 by varying the pH of the transport buffers in which the assay was conducted.
The mass spectrometric validation of the transport of all metabolites was performed with oocytes using a previously reported method ([24]). […] After an incubation at 4 °C for 24 h, the samples were centrifuged at 20,000g for 10 min, and the supernatants were collected. The samples (10 μl) were injected into a Thermo Scientific Vanquish UPLC system interfaced with a Thermo Scientific TSQ Quantiva triple-stage quadrupole mass spectrometer equipped with an H-ESI ion source. MS detection was conducted in negative ionization mode, and the transitions monitored for each metabolite are listed in Sup. Table S2. The operational mass spectrometric parameters included a capillary voltage of 4.5 kV; sheath gas of 35 arbitrary units; auxiliary gas of 10 arbitrary units; sweep gas of two arbitrary units; ion transfer tube temperature of 350 °C; vaporizer temperature of 450 °C; dwell time of 50 ms per transition; collision energy of 5 V; and collision-induced dissociation gas of 1.5 mTorr. Chromatographic separation was performed on a Kinetex […] (100 × 2.1 mm; 1.7 μm particle size) from Phenomenex. The mobile phase consisted of solvent A: water (0.1% formic acid) and solvent B: acetonitrile (0.1% formic acid). The flow rate was set at 0.3 ml/min, and the autosampler was maintained at 4 °C throughout the analysis.

Another experiment deals with PKC. The experiment is described as follows: PKC activity in CA-treated HeLa cells. Format: cell-based. The conditions noted are these: 100 μM CA, 14 h; control 0.01 ± 0.002. The method, then: as §1, §2
For the next experiment, the system named is PKA. As to the kind of experiment: PKA activity in CA-treated HeLa cells. The conditions noted are these: 100 μM CA, 14 h; control 0.27 ± 0.016. The format is cell-based.
For another experiment, the system named is cAMP. As to the kind of experiment: cAMP levels in CA-treated HeLa cell lysate. Format: cell-based. As to conditions: 100 μM CA, 14 h; control 0.96 ± 0.14. (In general: Cyclic AMP is a second messenger, typically raised through Gs and lowered through Gi signalling.)

As for `C[C@H](CCC(=O)O)[C@H]1CC[C@H]2[C@@H]3[C@H](O)C[C@@H]4C[C@H](O)CC[C@]4(C)[C@H]3C[C@H](O)[C@]12C` [CA, cholic acid], in the experiment with IP3, the “IP3 levels in HeLa cells” value worked out at 0.023 ± 0.0006 μg/μg protein. In experiment [1], the “reduction in the total Ado level in liver compared with control mice” value is reported as approximately 12%. For the same compound, on ENT2, the “transport by ENT2 mRNA-injected vs water-injected oocytes (LC-MS/MS)” value is given as “significant transport”. In addition, in the experiment on PKC, the “PKC activity in HeLa cells” value came out at 0.02 ± 0.0001 U/μg protein. The “PKA activity in HeLa cells” value in the experiment on PKA was determined as 0.54 ± 0 U/μg protein. The “cAMP levels in total HeLa cell lysate” value with cAMP came to 1.28 ± 0.04 pMol/μg protein.

For `C[C@H](CCC(=O)NCCS(=O)(=O)O)[C@H]1CC[C@H]2[C@@H]3[C@H](O)C[C@@H]4C[C@H](O)CC[C@]4(C)[C@H]3C[C@H](O)[C@]12C` [TCA, taurocholic acid], the “transport by ENT2 mRNA-injected vs water-injected oocytes (LC-MS/MS)” value on ENT2 is given as “significant transport”.
